Reference: US6420367B1, “Pyrimidine derivatives exhibiting antitumor activity” (Shionogo & Co., Ltd., priority 1998, dated 2002)
Converted amounts (≈) assume the structure as drawn.

Columns and labels:
[1] = tested on: DT-R cells (pRRE3-luc-transfected v-ki-ras-transformed NIH3T3 cells); signal derived from Ras oncogene products; assay: Inhibitory effect against cellular signaling derived from Ras oncogene products: luciferase reporter, dissociation of DT-R from DT-C activity (MAC); format: cell-based, mouse; settings: minimal tested concentration at which luciferase activities of DT-C cells and DT-R cells dissociated
Text: Test Example 1 Inhibitory Effect Against Cellular Signaling Derived From Ras Oncogene Products
1) Establishment of Cell Lines Used in Assay
Based on the reporter plasmid (pGV-P (Toyo Ink, Japan)), in which luciferase gene was ligated to SV40-derived minimal promoter, we constructed a plasmid designated pRRE3-luc by inserting 3 copies of chemically synthesized oligonucleotides (Sequence: CAGGATATGACTCT, derived from mouse NVL-3 (M. A. Reddy et al.(1992)Mol. Endocrinol., 6, 1051)) into upstream of the promoter. v-ki-ras-transformed NIH3T3 cells (DT cells, provided by Dr. Makoto Noda (Kyoto Univ., School of medicine)) were transfected with this plasmid by liposome-mediated transfection and transfected cell lines stably incorporated and maintained each plasmid were obtained. We named pGV-P and pRRE3-transfected cell line as DT-C and DT-R, respectively and used in the assay described below.
2) Preparation of Samples
i) All the cell lines were cultured in Dulbecco's Modified Essential Medium (DMEM: 10% Fetal Calf Serum(FCS: Hyclone, USA)) including […] kanamycin (Meiji Seika, Japan) in humidified incubator under condition of 5% CO2 at 37° C.
ii) DT-C and DT-R cells were seeded at 2500 cells/well into flat-bottom 96 well multiplate (Sumitomo bakelite) and incubated for 24 hours.
iii) Test compounds were prepared as 1 mg/ml DMSO solution.
iv) The solution of test compounds were added to the culture. Tested compounds are used at the concentration from […] to 0.51 ng/ml with by 3-fold dilution.
v) After 24 hours, the culture supernatant was completely aspirated and […] of cell-lysing solution (PGC-50 (Toyo Ink, Japan)) was added before cells were dried up. In order to the cells were lysed completely, multiwell plates were left at room temperature for 10 to 30 min. The plates were wrapped up and stored at −20° C. till the day of measurement.
3) Measurement of Samples
i) Melt the samples by putting 96 well multiplate at 37° C. and add 90 μl/well 25 mM Tris (pH 7.5).
ii) Transfer 50 μl of the sample (110 μl) to the 96 well microplate for measurement (Microlite 1 (Dynatech)).
iii) Measure the samples by the luminometer, LUMINOUS CT9000D (Dia-Yatron, Japan). We used Pickagene luminescence kit PGL2000 or LT2.0 (Toyo Ink, Japan) as substrates for luminescence measurement (50 μl/well).
4) Judgment of the Results
i) The luciferase activity of DT-C cells and DT-R cells were plotted in the graph where the relative activity and the compound concentration were expressed as Y-axis and X-axis, respectively. We judged by the degree of dissociation between the activities of DT-C cells and DT-R cells as an index.
ii) Concretely, efficacy of the compound was expressed by two values described below.
a) Among the points of concentration tested, the minimal concentration (Minimal Active Concentration: MAC), at which the activities of DT-C cells and DT-R cells dissociated, was shown as an index of efficacy of the compound.

[2] = tested on: human squamous lung cancer Ma44; assay: In vitro cell growth inhibition test, MTT assay; format: cell-based; settings: MTT assay 4 days after compound addition
Text: (§1) Test Example 2 In Vitro Cell Growth Inhibition Test Cells and MTT Assay
(§2) Human squamous lung cancer […], human squamous lung cancer Ma44, human lung adenocarcinoma A549, human colon cancer HT29 and human pancreas cancer PANC-1 were used.

[3] = tested on: human lung adenocarcinoma A549; assay: In vitro cell growth inhibition test, MTT assay; format: cell-based; settings: MTT assay 4 days after compound addition
Text: as §1, §2

[4] = tested on: human squamous lung cancer RERF-RC-AI; assay: In vitro cell growth inhibition test, MTT assay; format: cell-based; settings: MTT assay 4 days after compound addition
Text: as §1, §2

human colon cancer HT29 = assay: In vitro cell growth inhibition test, MTT assay; format: cell-based; settings: MTT assay 4 days after compound addition
Text: as §1, §2

[5] = tested on: human pancreas cancer PANC-1; assay: In vitro cell growth inhibition test, MTT assay; format: cell-based; settings: MTT assay 4 days after compound addition
Text: as §1, §2

| IC50, Ma44 [2] | IC50, A549 [3] | IC50, RERF-LC-AI [4] | IC50, HT29 (human colon cancer HT29) | IC50, PANC-1 [5] | SMILES | MAC (Minimal Active Concentration) [1] |
| --- | --- | --- | --- | --- | --- | --- |
| 0.05 µg/mL (≈ 0.107 µM) | 0.041 µg/mL (≈ 0.0875 µM) | 0.021 µg/mL (≈ 0.0448 µM) | 0.027 µg/mL (≈ 0.0576 µM) | 0.025 µg/mL (≈ 0.0533 µM) | CCCCNC(=Nc1nc(C)ncc1CSc1nnc(-c2ccc(N)cc2)o1)NCCCC [Compound A-169] | 0.0412 µg/mL |
| 0.0065 µg/mL (≈ 0.0143 µM) | 0.0087 µg/mL (≈ 0.0191 µM) | 0.0051 µg/mL (≈ 0.0112 µM) | 0.0061 µg/mL (≈ 0.0134 µM) | 0.0057 µg/mL (≈ 0.0125 µM) | C=CCNC(=Nc1nc(C)ncc1CSc1nnc(-c2ccc([N+](=O)[O-])cc2)o1)NCC [Compound A-181] | 0.0137 µg/mL |
| 0.31 µg/mL (≈ 0.727 µM) | 0.72 µg/mL (≈ 1.69 µM) | 0.077 µg/mL (≈ 0.181 µM) | 0.093 µg/mL (≈ 0.218 µM) | 0.18 µg/mL (≈ 0.422 µM) | CCNC(=Nc1nc(C)ncc1CSc1nnc(-c2ccc(N)c(C)c2)o1)NCC [Compound A-71] | 1.11 µg/mL |
| 0.74 µg/mL (≈ 1.67 µM) | 0.0061 µg/mL (≈ 0.0138 µM) | 0.062 µg/mL (≈ 0.14 µM) | 0.038 µg/mL (≈ 0.0857 µM) | 0.12 µg/mL (≈ 0.271 µM) | CCNC(=Nc1nc(C)ncc1CSc1nnc(-c2ccc([N+](=O)[O-])cn2)o1)NCC [Compound D-45] | 1.11 µg/mL |
| 0.025 µg/mL (≈ 0.0567 µM) | 0.014 µg/mL (≈ 0.0318 µM) | – | – | 0.0088 µg/mL (≈ 0.02 µM) | CCNC(=Nc1ncncc1CSc1nnc(-c2ccccc2NC(C)=O)o1)NCC [Compound A-57] | 0.0137 µg/mL |
| 0.11 µg/mL (≈ 0.245 µM) | 0.049 µg/mL (≈ 0.109 µM) | – | – | 0.024 µg/mL (≈ 0.0535 µM) | CCNC(=Nc1nc(C)ncc1CSc1nnc(-c2cc(F)c(F)cc2N)o1)NCC [Compound A-52] | 0.123 µg/mL |

More lines, now with the values behind:

| SMILES | IC50, Ma44 [2] | IC50, A549 [3] | IC50, RERF-LC-AI [4] | IC50, HT29 (human colon cancer HT29) | IC50, PANC-1 [5] | MAC (Minimal Active Concentration) [1] |
| --- | --- | --- | --- | --- | --- | --- |
| CCCNC(=Nc1nc(C)ncc1CSc1nnc(-c2ccc([N+](=O)[O-])cc2)o1)NCC [Compound A-135] | 0.016 µg/mL (≈ 0.035 µM) | 0.052 µg/mL (≈ 0.114 µM) | 0.012 µg/mL (≈ 0.0263 µM) | 0.01 µg/mL (≈ 0.0219 µM) | 0.017 µg/mL (≈ 0.0372 µM) | 0.0137 µg/mL |
| CCCNC(=Nc1nc(CC)ncc1CSc1nnc(-c2ccc(N)cc2)o1)NCCC [Compound A-139] | 0.014 µg/mL (≈ 0.0308 µM) | 0.013 µg/mL (≈ 0.0286 µM) | 0.013 µg/mL (≈ 0.0286 µM) | 0.008 µg/mL (≈ 0.0176 µM) | 0.007 µg/mL (≈ 0.0154 µM) | <0.000508 µg/mL |
| Cc1ncc(CSc2nnc(-c3ccc(N)cc3)o2)c(N=C(NC(C)C)NC(C)C)n1 [Compound A-166] | 0.049 µg/mL (≈ 0.111 µM) | 0.056 µg/mL (≈ 0.127 µM) | 0.016 µg/mL (≈ 0.0363 µM) | 0.033 µg/mL (≈ 0.0749 µM) | 0.028 µg/mL (≈ 0.0636 µM) | 0.123 µg/mL |
| Cc1ncc(CSc2nnc(-c3ccc([N+](=O)[O-])cc3)o2)c(N=C(NC(C)C)NC(C)C)n1 [Compound A-165] | 0.055 µg/mL (≈ 0.117 µM) | 0.095 µg/mL (≈ 0.202 µM) | 0.025 µg/mL (≈ 0.0531 µM) | 0.052 µg/mL (≈ 0.111 µM) | 0.05 µg/mL (≈ 0.106 µM) | 0.123 µg/mL |
| CCNC(=Nc1nc(C)ncc1CSc1nnc(-c2ccc([N+](=O)[O-])cc2)o1)NCC [Compound A-82] | 0.014 µg/mL (≈ 0.0316 µM) | 0.031 µg/mL (≈ 0.0701 µM) | 0.008 µg/mL (≈ 0.0181 µM) | 0.006 µg/mL (≈ 0.0136 µM) | 0.014 µg/mL (≈ 0.0316 µM) | <0.000508 µg/mL |
| CCNC(=Nc1nc(C)ncc1CSc1nnc(-c2ccccc2)o1)NCC [Compound A-107] | 0.055 µg/mL (≈ 0.138 µM) | 0.065 µg/mL (≈ 0.164 µM) | – | 0.036 µg/mL (≈ 0.0906 µM) | 0.052 µg/mL (≈ 0.131 µM) | 0.370 µg/mL |
